Data set [1] has as its system S. typhimurium TA97a. The note with it: positive control, 1.25 μg/ plate, TA 97, + S9.
Data set [2] concerns S. typhimurium TA97a. Conditions: mutagen alone (Ctrol +), 1.25 μg/ plate, TA 97a, + S9; listed as AA.
Another data set has as its system S. typhimurium TA98. The note with it: positive control, 1.25 μg/ plate, TA 98, + S9.
For data set [3], the system named is S. typhimurium TA100. The note with it: positive control, 1.25 μg/ plate, TA 100, + S9.
The test system of data set [4] is S. typhimurium TA100.

Several values for one entry are separate records, joined by “and”; a condition that tells them apart may be missing. Identical values can stand only once. Like-named read-outs stand apart in the source and are kept apart here. Marks after values point to notes of the source that are not given here.

For `Nc1ccc2cc3ccccc3cc2c1` [2-anthramine, 2-aminoanthracene, reference compound], the “Number of revertants (M ± SD)/ plate” value with S. typhimurium TA97a [1] is 1789 ± 89 ^e revertants/plate and 1861 ± 23 ^e revertants/plate; with S. typhimurium TA97a [2] it was 2312 ± 81 revertants/plate and 1861 ± 23 revertants/plate; in the data set with S. typhimurium TA98, 1567 ± 115 ^e revertants/plate and 1498 ± 33^ e revertants/plate; in the data set with S. typhimurium TA100 [3], 1456 ± 78 ^e revertants/plate and 1072 ± 25^ e revertants/plate.

As for aflatoxin B1 [AFB1, reference compound], the “Number of revertants (M ± SD)/ plate” value in the data set on S. typhimurium TA100 [4] is 2171 ± 33 revertants/plate and 2200 ± 140 revertants/plate.

These data come from article PMC6268188, “Comparative Studies of the (Anti) Mutagenicity of Baccharis dracunculifolia and Artepillin C by the Bacterial Reverse Mutation Test” (Molecules, 2012).
